The values below come from patent US9115101B2 (Genentech, Inc., priority 2012, dated 2015).

Structures are written as SMILES.

This test has as its target T1, RORc ligand binding domain (Homo sapiens, UniProt P51449).
T1 construct: host or cells: E. coli
T1 sequence (P51449 269-508 limits assumed): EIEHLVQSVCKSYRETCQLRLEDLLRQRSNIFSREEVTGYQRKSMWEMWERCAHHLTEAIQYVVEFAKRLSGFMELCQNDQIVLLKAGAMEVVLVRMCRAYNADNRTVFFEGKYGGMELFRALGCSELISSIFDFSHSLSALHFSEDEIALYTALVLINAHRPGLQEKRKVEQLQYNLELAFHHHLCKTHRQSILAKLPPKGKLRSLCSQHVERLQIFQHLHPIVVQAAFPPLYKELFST
In words: In Vitro RORc Ligand Binding Assay (25-[3H]hydroxycholesterol radioligand filtration). To be noted: In Vitro RORc Ligand Binding Assay; Table 4; read-out: RORc IC50.
The term IC50 denotes the concentration that gives 50% inhibition. Turning to `C[C@H]1CCC(c2ccccc2)S(=O)(=O)N1Cc1ccc(N2CCC(c3nncn3C)CC2)cc1F` (single isomer, unassigned) [Example 138], the IC50 stood at 1100 nM.
Then `C[C@H](O)C(=O)N1CCN(c2ccc(CN3CCCCC(c4ccccc4)S3(=O)=O)cc2)CC1` (single isomer, unassigned) [Example 309, 1-{4-[4-(1,1-Dioxo-7-phenyl-[1,2]thiazepan-2-ylmethyl)-phenyl]-piperazin-1-yl}-2-hydroxy-propan-1-one], with 106 nM; and `C[C@H]1CCC(c2ccccc2)S(=O)(=O)N1Cc1ccc(C(=O)N2CCOC3(CCOC3)C2)cc1` (stereo partly drawn) [Example 361, (2,6-Dioxa-9-aza-spiro[4.5]dec-9-yl)-[4-((3S)-methyl-1,1-dioxo-6-phenyl-[1,2]thiaznan-2-ylmethyl)-phenyl]-methanone], with 641 nM.
As for `CC(=O)N1CCN(c2ccc(CN3[C@H](C)COCC(c4ccccc4)S3(=O)=O)c(F)c2)CC1` (single isomer, unassigned) [Example 26], the figure is 2000 nM; as for `CC(=O)N1CCN(c2ccc(CN3CCC(C)CC(c4ccccc4)S3(=O)=O)c(F)c2)CC1` (single isomer, unassigned) [Example 331, 1-{4-[3-Fluoro-4-(5-methyl-1,1-dioxo-7-phenyl-[1,2]thiazepan-2-ylmethyl)-phenyl]-piperazin-1-yl}-ethanone], 22 nM.
`C[C@@H]1CCC(c2ccccc2)S(=O)(=O)N1Cc1ccc(OC2CCN(S(C)(=O)=O)CC2)cc1` (stereo partly drawn) [Example 52, (3R)-3-Methyl-2-(4-((1-(methylsulfonyl)piperidin-4-yl)oxy)benzyl)-6-phenyl-1,2-thiazinane 1,1-dioxide]: the IC50 was 20 nM.
`C[C@H]1CCC(c2ccccc2)S(=O)(=O)N1Cc1ccc(N2CCC(n3cnnc3)CC2)cc1F` (single isomer, unassigned) [Example 151]: the IC50 worked out at 27 nM.
`C[C@H]1CCC(c2ccccc2)S(=O)(=O)N1Cc1ccc(N[C@H]2C[C@@H](n3cnnc3)C2)cc1F` (stereo partly drawn) [Example 241, [3-Fluoro-4-((3S)-methyl-1,1-dioxo-6-phenyl-[1,2]thiazinan-2-ylmethyl)-phenyl]-(3-[1,2,4]triazol-4-yl-cyclobutyl)-amine]: the IC50 is 85 nM.
Then `CNC(=O)[C@H]1CN(c2ccc(CN3[C@@H](C)CCC(c4ccccc4)S3(=O)=O)c(F)c2)CCN1C(C)=O` (stereo partly drawn) [Example 383, (R)-1-Acetyl-4-[3-fluoro-4-((3S)-methyl-1,1-dioxo-6-phenyl-[1,2]thiazinan-2-ylmethyl)-phenyl]-piperazine-2-carboxylic acid methylamide], with 705 nM; and `CCCNC(=O)[C@@H]1CN(c2ccc(CN3[C@@H](C)CCC(c4ccccc4)S3(=O)=O)c(F)c2)CCN1C(C)=O` (stereo partly drawn) [Example 395, (S)-1-Acetyl-4-[3-fluoro-4-((3S)-methyl-1,1-dioxo-6-phenyl-[1,2]thiazinan-2-ylmethyl)-phenyl]-piperazine-2-carboxylic acid propylamide], with 287 nM.
As for `C[C@H]1CCC(c2ccccc2)S(=O)(=O)N1Cc1ccc(N2CCC(n3ccnn3)CC2)cc1F` (single isomer, unassigned) [Example 256], the figure is 4 nM.
Then `CC(=O)N1C[C@@H]2CN(c3ccc(CN4[C@@H](C)CCC(c5ccccc5)S4(=O)=O)c(F)c3)C[C@@H]2C1` (stereo partly drawn) [Example 245, 1-{(3aR,6aS)-5-[3-Fluoro-4-((3S)-methyl-1,1-dioxo-6-phenyl-[1,2]thiazinan-2-ylmethyl)-phenyl]-hexahydro-pyrrolo[3,4-c]pyrrol-2-yl}-ethanone], with 189 nM; and `CC(=O)N1CCN(c2ccc(CN3C[C@H](C)CC(c4ccccc4)S3(=O)=O)c(F)c2)CC1` (single isomer, unassigned) [Example 169], with 132 nM.
For `CC(=O)N1CCN(c2ccc(CN3[C@@H](C)CCC(c4ccccc4)S3(=O)=O)cc2C)CC1` (single isomer, unassigned) [Example 130], the IC50 came to 72 nM.
